Here are results for 15 compounds from patent US11028087B2, “2,6-disubstituted-9-cyclopentyl-9H-purines, use thereof as medicaments, and pharmaceutical compositions” (UNIVERZITA PALACKEHO V OLOMOUCI, priority 2017, dated 2021).

For experiment [1], the target named is T1, FLT3 WT (Homo sapiens, UniProt P36888).
T1 construct: purchased ProQinase GmbH
T1 sequence (P36888 27-993): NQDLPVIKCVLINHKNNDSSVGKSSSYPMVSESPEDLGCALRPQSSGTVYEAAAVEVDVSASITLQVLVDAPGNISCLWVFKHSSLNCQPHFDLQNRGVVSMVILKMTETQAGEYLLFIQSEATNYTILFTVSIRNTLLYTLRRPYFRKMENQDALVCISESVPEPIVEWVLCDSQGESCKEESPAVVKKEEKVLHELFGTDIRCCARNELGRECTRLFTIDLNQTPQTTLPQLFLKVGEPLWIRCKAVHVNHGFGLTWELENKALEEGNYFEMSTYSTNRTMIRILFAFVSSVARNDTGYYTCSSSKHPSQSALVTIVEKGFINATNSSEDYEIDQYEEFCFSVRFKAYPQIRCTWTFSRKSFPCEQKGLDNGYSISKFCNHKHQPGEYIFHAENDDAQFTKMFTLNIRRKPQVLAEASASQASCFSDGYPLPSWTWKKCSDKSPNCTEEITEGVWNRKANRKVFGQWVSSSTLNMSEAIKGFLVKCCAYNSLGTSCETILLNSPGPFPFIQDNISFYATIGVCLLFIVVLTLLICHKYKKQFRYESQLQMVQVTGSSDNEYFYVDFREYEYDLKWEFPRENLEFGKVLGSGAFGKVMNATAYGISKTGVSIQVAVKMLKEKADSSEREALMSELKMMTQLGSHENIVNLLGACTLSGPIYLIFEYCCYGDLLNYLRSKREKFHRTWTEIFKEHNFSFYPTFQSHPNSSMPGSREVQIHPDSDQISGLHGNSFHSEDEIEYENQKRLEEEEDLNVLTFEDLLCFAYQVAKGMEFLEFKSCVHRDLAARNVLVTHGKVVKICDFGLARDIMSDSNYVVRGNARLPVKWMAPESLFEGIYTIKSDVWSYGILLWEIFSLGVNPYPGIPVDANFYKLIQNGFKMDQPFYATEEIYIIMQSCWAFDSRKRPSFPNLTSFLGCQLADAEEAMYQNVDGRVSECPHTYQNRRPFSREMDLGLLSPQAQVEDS
The experiment is described as follows: Kinase inhibition assay with [γ-33P]ATP. Particulars: AGLT substrate, 1 μM ATP. The format is biochemical. The essentials: (§1)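 Radiometric [γ-33P]ATP assay in HEPES pH 7.5 with Mg2+/Mn2+: CDK1/Cyclin B (Sf9-expressed) and purchased CDK5/p35 with 1 mg/mL histone H1 at 15 and 0.15 μM ATP respectively; FLT3 WT and FLT3-ITD with AGLT substrate at 1 μM ATP. Reactions stopped with H3PO4, spotted onto phosphocellulose and washed.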

The target of experiment [2] is T2, FLT3-ITD (Homo sapiens, UniProt P36888).
T2 sequence (P36888 1-993): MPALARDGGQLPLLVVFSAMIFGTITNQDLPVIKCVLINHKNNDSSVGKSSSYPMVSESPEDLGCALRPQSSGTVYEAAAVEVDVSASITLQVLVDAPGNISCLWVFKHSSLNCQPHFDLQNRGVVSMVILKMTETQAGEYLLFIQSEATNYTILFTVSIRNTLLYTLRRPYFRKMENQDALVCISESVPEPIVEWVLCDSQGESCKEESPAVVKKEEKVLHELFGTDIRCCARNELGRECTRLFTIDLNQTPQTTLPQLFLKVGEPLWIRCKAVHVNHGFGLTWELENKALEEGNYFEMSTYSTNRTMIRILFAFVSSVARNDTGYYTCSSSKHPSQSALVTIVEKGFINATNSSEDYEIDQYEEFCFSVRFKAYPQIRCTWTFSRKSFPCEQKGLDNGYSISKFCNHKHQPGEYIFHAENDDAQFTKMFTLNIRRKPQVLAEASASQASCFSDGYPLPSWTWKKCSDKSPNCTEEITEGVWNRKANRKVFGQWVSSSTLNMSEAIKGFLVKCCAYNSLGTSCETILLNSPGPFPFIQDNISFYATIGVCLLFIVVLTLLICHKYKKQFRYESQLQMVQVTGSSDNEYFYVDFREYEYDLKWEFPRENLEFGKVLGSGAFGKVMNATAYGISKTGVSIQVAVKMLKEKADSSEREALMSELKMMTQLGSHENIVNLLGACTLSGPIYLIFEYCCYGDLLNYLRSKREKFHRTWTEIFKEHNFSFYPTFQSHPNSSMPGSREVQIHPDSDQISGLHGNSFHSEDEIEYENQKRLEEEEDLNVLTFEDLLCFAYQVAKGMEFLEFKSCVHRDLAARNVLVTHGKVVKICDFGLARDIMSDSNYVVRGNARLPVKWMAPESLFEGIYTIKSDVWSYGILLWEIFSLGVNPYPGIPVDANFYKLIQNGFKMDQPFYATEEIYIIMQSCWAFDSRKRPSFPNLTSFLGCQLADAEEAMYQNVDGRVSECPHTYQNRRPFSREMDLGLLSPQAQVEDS
The experiment can be described thus: Kinase inhibition assay with [γ-33P]ATP. The format is biochemical. The essentials:
as §1

[3] abbreviates: AGLT substrate, 1 μM ATP, read-out: IC50 values (μM) FLT3 ITD.

Like-named read-outs stand apart in the source and are kept apart here.

A word on the IC50: it is the concentration at which inhibition is half-maximal. Regarding `NC1CCC(Nc2nc(Nc3ccc(N4CCOCC4)cc3)c3ncn(C4CCCC4)c3n2)CC1` (stereo not drawn) [Compound 1], the 50% inhibitory concentration (IC50) in experiment [1] was determined as 0.023 µM; in experiment [2] (setting [3]), 0.002 µM.

As to `NC1CCC(Nc2nc(Nc3ccc(CN4CCNCC4)cc3)c3ncn(C4CCCC4)c3n2)CC1` (stereo not drawn) [Compound 2], the IC50 was determined as 0.015 µM in experiment [1] and 0.004 µM in experiment [2] (setting [3]).

`CN1CCN(C(=O)c2ccc(Nc3nc(NC4CCC(N)CC4)nc4c3ncn4C3CCCC3)cc2)CC1` (stereo not drawn) [Compound 3]: the IC50 in experiment [1] amounted to 0.021 µM; in experiment [2] (setting [3]), 0.007 µM.

As for `CN1CC2(C1)CN(c1ccc(Nc3nc(NC4CCC(O)CC4)nc4c3ncn4C3CCCC3)cc1)C2` (stereo not drawn) [Compound 7], the concentration for half-maximal inhibition (IC50) in experiment [1] is 0.026 µM; in experiment [2] (setting [3]) it was 0.005 µM.

For `NCCNc1nc(Nc2ccc(CN3CCNCC3)cc2)c2ncn(C3CCCC3)c2n1` [Compound 14], the figures for the IC50 in experiment [1] and in experiment [2] (setting [3]) were 0.014 µM and 0.004 µM, respectively.

With `CN1CCN(C(=O)c2ccc(Nc3nc(NCCCCN)nc4c3ncn4C3CCCC3)cc2)CC1` [Compound 27], the figures for the concentration for half-maximal inhibition (IC50) in experiment [1] and in experiment [2] (setting [3]) were 0.019 µM and 0.002 µM, respectively.

Consider `NCCCCNc1nc(Nc2ccc(N3CC4(COC4)C3)nc2)c2ncn(C3CCCC3)c2n1` [Compound 28], for which the IC50 in experiment [1] came to 0.01 µM; in experiment [2] (setting [3]) it was 0.003 µM.

With `CN(C)CCNc1nc(Nc2ccc(CN3CCOCC3)nc2)c2ncn(C3CCCC3)c2n1` [Compound 172], the IC50 in experiment [1] was found to be 0.011 µM; in experiment [2] (setting [3]), 0.003 µM.

For `CN(C)CCCNc1nc(Nc2ccc(C(=O)N3CCOCC3)nc2)c2ncn(C3CCCC3)c2n1` [Compound 179], the figures for the half-inhibitory concentration (IC50) in experiment [1] and in experiment [2] (setting [3]) were 0.09 µM and 0.012 µM, respectively.

For `NC1CCC(Nc2nc(Nc3ccc(N4CCCC4)cc3)c3ncn(C4CCCC4)c3n2)CC1` (stereo not drawn) [Compound 263], the IC50 is 0.021 µM in experiment [1] and 0.003 µM in experiment [2] (setting [3]).

As to `NC1CCC(Nc2nc(Nc3ccc(CN4CCOCC4)cc3)c3ncn(C4CCCC4)c3n2)CC1` (stereo not drawn) [Compound 264], the IC50 in experiment [1] came out at 0.013 µM; in experiment [2] (setting [3]), 0.001 µM; in experiment [2] (comparative example, read-out: Influence of compounds on protein kinase inhibition, IC50 values (μM) FLT3 ITD) it was 0.001 µM.

In the case of `NCCCCNc1nc(Nc2ccc(N3CCOCC3)cc2)c2ncn(C3CCCC3)c2n1` [Compound 265], the 50% inhibitory concentration (IC50) amounted to 0.023 µM in experiment [1] and 0.004 µM in experiment [2] (setting [3]).

With `CCN1CCN(c2ccc(Nc3nc(NCCCCN)nc4c3ncn4C3CCCC3)cc2)CC1` [Compound 266], the IC50 in experiment [1] is 0.013 µM; in experiment [2] (setting [3]) it was 0.002 µM.

As for `NCCCCNc1nc(Nc2ccc(CN3CCOCC3)cc2)c2ncn(C3CCCC3)c2n1` [Compound 270], the figures for the half-inhibitory concentration (IC50) in experiment [1] and in experiment [2] (setting [3]) were 0.006 µM and 0.002 µM, respectively.

The compound `NC1CCC(Nc2nc(Nc3ccc(N4CC5(COC5)C4)cc3)c3ncn(C4CCCC4)c3n2)CC1` (stereo not drawn) [Compound 272] gave an IC50 in experiment [1] of 0.013 µM.
